Earlier results in patent publication US9615750B2, “Methods and compositions for carrier agents and clearing agents used in optoacoustic imaging systems” (SENO MEDICAL INSTRUMENTS, INC., priority 2012, dated 2017).

Conditions: for Solubility: in words, solvents as named

Row | Molecule | Solubility in water | Solubility
1 | NC(N)=O [Urea] | > 100 g/100 ml) | –
2 | Keratan Sulfate | – | Water Soluble
3 | Polyoxyethylene (20) sorbitan [TWEEN ® 20] | – | Insoluble in Mineral Oil.

More lines, now with the values ahead:

Row | Solubility in water | Solubility | Molecule
4 | soluble 4 g/100 ml | – | OCc1ccccc1 [Benzyl alcohol]
5 | – | Soluble in water | CN1CCCN(C)C1=O [Cyclic Urea]
6 | – | Water Soluble | Chondroitin Sulfate
7 | – | Water Soluble | Heparin [reference compound]
